Measured values published in patent US12459912B2 (priority 2020, dated 2025).
Several values for one entry are separate records, joined by “and”; a condition that tells them apart may be missing. Equal entries are not always repeated.

Experiments:
[1] = target: 5-Hydroxytryptamine (Serotonin) Receptor 1B (5-HT1B) (Homo sapiens, UniProt P28222); experiment: 5-HT1B/cAMP; type: cell-based; conditions: EC50 (μM)
[2] = target: CHRM3 (Muscarinic acetylcholine Receptor M3) (Homo sapiens, UniProt P20309); experiment: cell-based
[3] = target: CNR1 (Cannabinoid Receptor 1) (Homo sapiens, UniProt P21554); experiment: CNR1/cAMP; type: cell-based
Sequence of CNR1 (Cannabinoid Receptor 1) (P21554 whole entry): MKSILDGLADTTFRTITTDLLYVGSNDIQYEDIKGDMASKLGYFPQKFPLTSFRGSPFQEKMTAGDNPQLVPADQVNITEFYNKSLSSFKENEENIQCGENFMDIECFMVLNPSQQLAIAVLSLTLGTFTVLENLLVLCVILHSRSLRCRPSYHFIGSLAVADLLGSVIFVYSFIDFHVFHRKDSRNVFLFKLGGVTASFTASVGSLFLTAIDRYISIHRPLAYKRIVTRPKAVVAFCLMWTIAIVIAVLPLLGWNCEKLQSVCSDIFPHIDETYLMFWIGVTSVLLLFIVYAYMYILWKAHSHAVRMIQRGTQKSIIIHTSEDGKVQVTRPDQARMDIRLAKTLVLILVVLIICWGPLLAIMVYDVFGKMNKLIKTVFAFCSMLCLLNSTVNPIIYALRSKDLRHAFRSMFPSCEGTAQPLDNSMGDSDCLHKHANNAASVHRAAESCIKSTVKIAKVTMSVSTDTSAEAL

[4] = target: CNR2 (Cannabinoid Receptor 2) (Homo sapiens, UniProt P34972); experiment: CNR2/cAMP; type: cell-based
Sequence of CNR2 (Cannabinoid Receptor 2) (P34972 whole entry): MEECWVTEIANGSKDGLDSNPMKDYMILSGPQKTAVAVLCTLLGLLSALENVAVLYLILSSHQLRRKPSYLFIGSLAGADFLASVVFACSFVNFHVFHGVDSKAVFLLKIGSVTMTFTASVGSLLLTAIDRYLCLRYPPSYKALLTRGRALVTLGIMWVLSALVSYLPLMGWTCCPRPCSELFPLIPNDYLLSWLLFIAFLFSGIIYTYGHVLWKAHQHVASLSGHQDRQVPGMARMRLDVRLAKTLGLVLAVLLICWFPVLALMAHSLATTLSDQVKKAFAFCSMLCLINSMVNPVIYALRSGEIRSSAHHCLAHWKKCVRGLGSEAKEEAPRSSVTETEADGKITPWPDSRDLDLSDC

[5] = target: OPRD1 (Opioid Receptor Delta 1) (Homo sapiens, UniProt P41143); experiment: OPRD1/cAMP; type: cell-based
Sequence of OPRD1 (Opioid Receptor Delta 1) (P41143 whole entry): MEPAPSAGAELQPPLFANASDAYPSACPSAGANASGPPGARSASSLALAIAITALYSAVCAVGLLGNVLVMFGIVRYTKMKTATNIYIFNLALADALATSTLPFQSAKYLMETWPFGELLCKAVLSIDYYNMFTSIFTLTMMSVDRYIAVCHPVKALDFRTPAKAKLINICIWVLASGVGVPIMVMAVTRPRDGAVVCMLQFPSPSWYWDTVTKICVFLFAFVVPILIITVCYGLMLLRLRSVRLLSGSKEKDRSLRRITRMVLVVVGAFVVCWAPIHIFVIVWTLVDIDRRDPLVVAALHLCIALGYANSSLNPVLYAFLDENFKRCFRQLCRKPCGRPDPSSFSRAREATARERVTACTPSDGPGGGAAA

[6] = target: T1, nAChR(a4/b2) (Nicotinic acetylcholine Receptor α4 β2) (Homo sapiens, UniProt P17787+P43681); experiment: cell-based; conditions: EC50 (μM)
T1 construct: expressed in transfected cells
T1 sequence (P43681 29-627 limits assumed): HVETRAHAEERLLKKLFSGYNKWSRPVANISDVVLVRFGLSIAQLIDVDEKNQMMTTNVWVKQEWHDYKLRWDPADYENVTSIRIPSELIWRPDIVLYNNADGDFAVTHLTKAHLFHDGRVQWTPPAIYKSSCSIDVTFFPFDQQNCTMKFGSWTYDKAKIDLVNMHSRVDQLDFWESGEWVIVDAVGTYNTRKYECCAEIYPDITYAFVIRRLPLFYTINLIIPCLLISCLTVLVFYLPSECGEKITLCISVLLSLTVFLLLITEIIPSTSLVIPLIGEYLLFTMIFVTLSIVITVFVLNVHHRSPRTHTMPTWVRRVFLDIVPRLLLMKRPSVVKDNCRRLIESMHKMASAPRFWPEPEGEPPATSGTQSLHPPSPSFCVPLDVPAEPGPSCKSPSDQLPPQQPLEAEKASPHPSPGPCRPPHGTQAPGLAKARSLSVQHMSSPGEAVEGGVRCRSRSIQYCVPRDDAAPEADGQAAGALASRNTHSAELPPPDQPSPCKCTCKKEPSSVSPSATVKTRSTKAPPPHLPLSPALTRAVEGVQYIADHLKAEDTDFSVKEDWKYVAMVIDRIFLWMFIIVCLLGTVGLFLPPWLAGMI
T1 sequence (P17787 26-502): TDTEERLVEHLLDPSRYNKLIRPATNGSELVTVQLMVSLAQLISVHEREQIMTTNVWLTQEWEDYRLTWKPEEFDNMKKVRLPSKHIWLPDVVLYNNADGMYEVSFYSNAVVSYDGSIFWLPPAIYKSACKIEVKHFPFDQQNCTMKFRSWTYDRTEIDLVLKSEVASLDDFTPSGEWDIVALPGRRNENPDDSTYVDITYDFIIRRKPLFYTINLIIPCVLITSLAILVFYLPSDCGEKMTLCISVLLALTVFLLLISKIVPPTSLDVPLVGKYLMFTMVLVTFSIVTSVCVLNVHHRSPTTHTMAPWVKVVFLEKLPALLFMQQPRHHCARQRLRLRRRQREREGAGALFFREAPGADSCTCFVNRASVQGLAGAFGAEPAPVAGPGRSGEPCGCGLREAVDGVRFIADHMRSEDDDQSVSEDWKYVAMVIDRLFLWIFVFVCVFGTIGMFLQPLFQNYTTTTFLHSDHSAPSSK

hERG = target: T2, hERG (Homo sapiens, UniProt Q12809); experiment: hERG/Ion Channel; type: cell-based
T2 construct: expressed in transfected cells
T2 sequence (Q12809 whole entry): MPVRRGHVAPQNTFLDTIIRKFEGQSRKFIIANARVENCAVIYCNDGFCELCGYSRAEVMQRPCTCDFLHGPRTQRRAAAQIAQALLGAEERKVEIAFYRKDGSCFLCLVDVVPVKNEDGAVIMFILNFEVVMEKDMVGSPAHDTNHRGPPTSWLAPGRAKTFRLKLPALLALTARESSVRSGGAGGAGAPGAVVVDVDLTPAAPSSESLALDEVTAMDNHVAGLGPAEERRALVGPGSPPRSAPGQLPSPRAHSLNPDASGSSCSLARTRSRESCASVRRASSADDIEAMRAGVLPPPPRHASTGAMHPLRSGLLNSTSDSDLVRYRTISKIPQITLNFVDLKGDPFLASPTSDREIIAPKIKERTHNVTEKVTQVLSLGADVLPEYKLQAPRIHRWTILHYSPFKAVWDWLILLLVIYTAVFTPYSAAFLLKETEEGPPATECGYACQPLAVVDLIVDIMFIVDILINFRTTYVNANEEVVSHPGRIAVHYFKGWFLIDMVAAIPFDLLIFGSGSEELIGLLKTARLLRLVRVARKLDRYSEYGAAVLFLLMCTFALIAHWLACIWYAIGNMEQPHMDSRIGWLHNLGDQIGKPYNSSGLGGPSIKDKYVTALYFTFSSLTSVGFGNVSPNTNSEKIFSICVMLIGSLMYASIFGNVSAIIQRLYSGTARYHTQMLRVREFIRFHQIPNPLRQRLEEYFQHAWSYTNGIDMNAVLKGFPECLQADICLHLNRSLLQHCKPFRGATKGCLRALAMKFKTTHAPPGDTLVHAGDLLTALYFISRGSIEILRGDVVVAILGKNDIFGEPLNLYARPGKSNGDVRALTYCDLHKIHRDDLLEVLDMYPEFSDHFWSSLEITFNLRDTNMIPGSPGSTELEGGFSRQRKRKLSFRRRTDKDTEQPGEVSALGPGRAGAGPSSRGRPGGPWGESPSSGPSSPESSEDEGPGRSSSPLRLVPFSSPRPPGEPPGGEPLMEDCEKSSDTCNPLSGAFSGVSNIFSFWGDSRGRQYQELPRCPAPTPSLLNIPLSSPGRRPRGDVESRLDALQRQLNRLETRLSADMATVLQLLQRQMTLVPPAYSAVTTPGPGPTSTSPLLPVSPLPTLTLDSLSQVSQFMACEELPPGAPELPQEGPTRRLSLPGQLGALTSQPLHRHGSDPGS

[7] = target: T3, MAOA (Monoamine oxidase type A) (Homo sapiens, UniProt P21397); experiment: MAOA/Enzymatic; type: biochemical
T3 construct: purchased Sigma
T3 sequence (P21397 whole entry): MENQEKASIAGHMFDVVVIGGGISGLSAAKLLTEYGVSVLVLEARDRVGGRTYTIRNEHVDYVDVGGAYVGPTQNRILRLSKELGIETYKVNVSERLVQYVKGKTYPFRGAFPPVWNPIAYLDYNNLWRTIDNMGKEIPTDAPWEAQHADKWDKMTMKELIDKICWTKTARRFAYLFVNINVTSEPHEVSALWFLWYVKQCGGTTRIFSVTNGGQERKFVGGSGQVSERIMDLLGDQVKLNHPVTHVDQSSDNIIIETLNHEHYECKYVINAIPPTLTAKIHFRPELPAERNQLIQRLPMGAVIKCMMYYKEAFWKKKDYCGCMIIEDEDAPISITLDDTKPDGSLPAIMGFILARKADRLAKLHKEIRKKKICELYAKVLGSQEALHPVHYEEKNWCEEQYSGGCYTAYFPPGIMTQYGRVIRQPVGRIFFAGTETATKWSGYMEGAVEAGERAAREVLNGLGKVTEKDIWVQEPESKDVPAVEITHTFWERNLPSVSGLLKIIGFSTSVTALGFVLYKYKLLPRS

[8] = target: T4, AChE (Acetylcholinesterase) (Homo sapiens, UniProt P22303); experiment: AChE/Enzymatic; type: biochemical
T4 construct: purchased R&D Systems

COX2 (Cyclooxygenase 2) = target: T5, COX2 (Cyclooxygenase 2) (Homo sapiens, UniProt P35354); experiment: COX2/Enzymatic; type: biochemical
T5 construct: purchased BPS Bioscience
T5 sequence (P35354 18-604): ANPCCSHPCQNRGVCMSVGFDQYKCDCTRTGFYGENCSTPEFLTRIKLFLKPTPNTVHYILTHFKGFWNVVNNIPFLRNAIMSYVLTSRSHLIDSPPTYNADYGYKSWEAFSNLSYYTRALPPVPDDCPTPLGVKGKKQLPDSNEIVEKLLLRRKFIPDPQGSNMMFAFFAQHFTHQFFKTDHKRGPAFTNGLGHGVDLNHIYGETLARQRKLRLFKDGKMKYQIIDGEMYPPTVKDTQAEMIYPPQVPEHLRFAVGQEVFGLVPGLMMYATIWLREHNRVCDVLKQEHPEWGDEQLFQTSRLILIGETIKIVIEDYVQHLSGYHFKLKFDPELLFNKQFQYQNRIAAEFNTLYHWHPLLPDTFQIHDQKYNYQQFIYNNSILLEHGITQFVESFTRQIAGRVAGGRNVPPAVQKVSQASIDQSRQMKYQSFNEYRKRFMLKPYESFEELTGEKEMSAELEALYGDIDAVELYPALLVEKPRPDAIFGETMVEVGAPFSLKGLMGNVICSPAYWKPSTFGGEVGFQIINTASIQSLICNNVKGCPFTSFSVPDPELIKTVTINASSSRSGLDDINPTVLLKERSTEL

[9] = target: AR (Nuclear Hormone Androgen Receptor) (Homo sapiens, UniProt P10275); experiment: AR/NHR Nuclear Translocation; type: cell-based
[10] = target: T6, VEGFR2 (Vascular endothelial growth factor receptor 2 (KDR tyrosine kinase)) (Homo sapiens, UniProt P35968); experiment: biochemical; type: binding
T6 construct: made in house; host or cells: E. coli BL21-derived host (T7 phage) or HEK-293

Sequence of 5-Hydroxytryptamine (Serotonin) Receptor 1B (5-HT1B) (P28222 whole entry): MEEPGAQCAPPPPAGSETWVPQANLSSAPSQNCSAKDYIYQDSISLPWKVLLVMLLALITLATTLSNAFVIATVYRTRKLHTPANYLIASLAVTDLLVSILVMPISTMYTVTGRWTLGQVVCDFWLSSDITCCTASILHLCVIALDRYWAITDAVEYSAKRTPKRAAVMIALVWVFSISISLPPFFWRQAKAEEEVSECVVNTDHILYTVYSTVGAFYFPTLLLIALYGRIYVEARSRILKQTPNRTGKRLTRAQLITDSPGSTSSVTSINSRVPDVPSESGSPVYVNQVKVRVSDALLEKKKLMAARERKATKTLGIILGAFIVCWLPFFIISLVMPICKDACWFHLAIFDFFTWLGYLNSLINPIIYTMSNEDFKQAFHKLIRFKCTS

## CNC(C)Cc1ccc2ccsc2c1 (stereo not shown) [drawing 522]
[1]; agonist
  EC50: 0.024 µM
[1]; antagonist
  EC50: > 10 µM
[2]
  EC50: > 10 µM
[3]
  EC50: > 10 µM
[4]
  EC50: > 10 µM
[5]
  EC50: > 10 µM
[6]
  EC50: > 10 µM and 4.44 µM
hERG
  EC50: > 10 µM
[7]
  EC50: 0.945 µM
[8]
  EC50: > 10 µM
COX2 (Cyclooxygenase 2)
  EC50: > 10 µM
[9]
  EC50: > 10 µM
[10]
  EC50: > 10 µM
